Earlier results, collected in patent US8859761B2, “Refining process of Cefamandole sodium” (Hainan Lingkang Pharmaceutical Co., Ltd., priority 2011, dated 2014).

In the case of `Cn1nnnc1SCC1=C(C(=O)[O-])N2C(=O)C(NC(=O)C(OC=O)c3ccccc3)C2SC1.[Na+]` [Cefamandole nafate, sodium 7-D-(2-formyloxyphenylacetamide)-3-[(1-methyl-1H-tetrazol-5-yl)thiomethyl]-3-cephem-4-carboxylate], the solubility in ethanol (ethanol) is given as “almost insoluble” and the solubility in water (water) is given as “dissolves well”.
